Assays:
allergic conjunctivitis = conditions: rats, administered topically into the eyes; cited from earlier work
[1] = tested on: LPS-induced TNFα release from human monocytes; experiment: LPS-stimulated TNFα release from human monocytes (ELISA); format: cell-based
Method: The influence of monocompounds and their various combinations, also in three-in-one on TNF secretion was investigated by using human monocytes. The study was approved by our institutional Ethics Committee according to the International Declarations of Helsinki and Tokyo.
Peripheral blood mononuclear cells (PBMCs) were isolated from heparinized blood samples of healthy donors by density gradient centrifugation. An equal volume of Hanks buffer (Invitrogen, Heidelberg, Germany) was added to heparinized whole blood samples. […] A visible band containing PBMCs was transferred to a fresh tube and washed twice with Hanks-buffer. […] 5% CO2 overnight. Monocytes were isolated from other cells by adherence method, non-adherent cells were removed by changing the medium.
Cells were re-suspended at 10^6 cells/ml and incubated in 500 μl volumes in 24-well tissue culture plates (Falcon Becton Dickinson Labware, Heidelberg, Germany) at 37° C., 5% CO2. After pre-incubation with test substances (0.5 μl/500 μl medium) for 30 min, cells were stimulated with lipopolysaccharide (LPS) (Sigma, Deisenhofen, Germany) (1 μg/ml). After 24 h of incubation, cells were sedimented by centrifugation. The supernatants were harvested and kept frozen at −80° C. until protein determination.
Cytokine measurements in culture supernatants were done by sandwich ELISA using matched antibody pairs (BD Pharmingen, Heidelberg, Germany). ELISA plates (Maxisorb, Nunc, Wiesbaden, Germany) were coated overnight with anti-cytokine monoclonal antibody (mAb) in 0.1M carbonate buffer, pH 9.5. After being washed, plates were blocked with Assay Diluent (BD Pharmingen, Heidelberg, Germany) for 1 h and washed again. Appropriately diluted supernatant samples and standards were distributed in duplicates and the plates were incubated for 2 h at room temperature. Plates were washed, incubated for 1 h with working detector (biotinylated anti-cytokine antibody and Avidin-horseradish peroxidase conjugate) (BD Pharmingen, Heidelberg, Germany). After washing, substrate (TMB and hydrogen peroxide) was added. The reaction was stopped by adding of 1M H3PO4. Plates were read at 450 nm (reference 570 nm) in a microplate reader (Dynatech, Alexandria, USA). The results were expressed as a percentage of the control level of cytokines production by cells stimulated in the absence of the compound.

[2] = mice; cited from earlier work
[3] = animal experiments; completely reversed by adding scopolamine; cited from earlier work
[4] = tested on: collagen-induced arthritis; conditions: rats; cited from earlier work
[5] = tested on: allergen-induced airway eosinophilia; conditions: Brown Norway rats; administered directly into the lungs; cited from earlier work
[6] = dog, in vivo, 15 mg/kg; cited from earlier work
M3 muscarinic receptors = M3 muscarinic receptors (Homo sapiens, UniProt P20309); conditions: kinetics studies; cited from earlier work
M3 muscarinic receptors, sequence (P20309 whole entry): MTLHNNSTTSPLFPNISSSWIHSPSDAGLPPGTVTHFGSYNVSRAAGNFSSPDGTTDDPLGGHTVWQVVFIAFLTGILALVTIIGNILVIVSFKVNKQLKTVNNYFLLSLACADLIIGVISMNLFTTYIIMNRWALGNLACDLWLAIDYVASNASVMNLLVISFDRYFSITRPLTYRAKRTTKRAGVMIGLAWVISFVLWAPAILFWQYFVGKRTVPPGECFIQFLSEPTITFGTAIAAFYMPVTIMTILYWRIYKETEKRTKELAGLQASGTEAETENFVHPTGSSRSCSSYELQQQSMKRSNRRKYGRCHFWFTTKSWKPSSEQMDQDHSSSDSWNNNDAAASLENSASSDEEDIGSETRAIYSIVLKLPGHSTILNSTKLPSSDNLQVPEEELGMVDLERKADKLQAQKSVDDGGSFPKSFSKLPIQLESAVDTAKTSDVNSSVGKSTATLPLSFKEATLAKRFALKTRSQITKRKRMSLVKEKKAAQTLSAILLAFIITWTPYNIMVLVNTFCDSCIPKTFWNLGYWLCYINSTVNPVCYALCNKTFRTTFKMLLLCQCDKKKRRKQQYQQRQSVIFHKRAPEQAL

M1-M3 receptors = conditions: cited from earlier work

In the case of COc1cc(C(=O)NS(=O)(=O)c2ccccc2C)ccc1Cc1cn(C)c2ccc(NC(=O)OC3CCCC3)cc12 [Zafirlukast, zafirlukast], the “development of symptoms and mediator release” value (allergic conjunctivitis) is listed as “effectively inhibit”.
For CCCC1O[C@@H]2C[C@H]3[C@@H]4CCC5=CC(=O)C=C[C@]5(C)[C@H]4[C@@H](O)C[C@]3(C)[C@]2(C(=O)CO)O1 (stereo partly shown) [budesonide], the IC50 ([1]; Monocyte, human monocytes, LPS 1 μg/ml, 24 h, read-out: IC50 for inhibition of TNFα release) was 0.55 ± 0.13 nM.
For COc1ccc(C2CNC(=O)C2)cc1OC1CCCC1 (stereo not shown) [rolipram], the “IC35 for inhibition of TNFα release” value ([1]; IC35 determined instead of IC50 because maximum inhibition was around 70%) is given as 68.9 ± 15.2 nM, the “maximum inhibition of TNFα release” value ([1]; human monocytes, LPS 1 μg/ml, 24 h) is given as “around 70%” and the “physiological bone formation and bone mass” value [2] is given as “enhance physiological bone formation and thereby increase bone mass”. For the same compound, the “sedative effects (hypoactivity, decreased locomotion)” value [3] was “induces sedative effects” and the “clinical and histological severity of collagen-induced arthritis” value [4] was “reduced the clinical and histological severity”.
In the case of O=C(Nc1c(Cl)cncc1Cl)C(=O)c1cn(Cc2ccc(F)cc2)c2ccc(O)cc12 [AWD 12-281], the “ID50 for suppression of allergen-induced airway eosinophilia” value [5] is given as 7 µg/kg and the emesis [6] is given as “no emesis could be induced”.
For C[C@H]1C[C@H]2[C@@H]3CCC4=CC(=O)C=C[C@]4(C)[C@@]3(Cl)[C@@H](O)C[C@]2(C)[C@@]1(O)C(=O)CO [beclomethasone], the “ID50 for suppression of allergen-induced airway eosinophilia” value [5] is listed as 0.1 µg/kg.
For C[N+]1(C)CCC(OC(=O)C(O)(c2ccccc2)C2CCCC2)C1 (racemic) [glycopyrrolate, racemic glycopyrrolate], the “dissociation from M3 muscarinic receptors” value (M3 muscarinic receptors) is given as “dissociates slowly” and the “selectivity in binding to the M1-M3 receptors” value (M1-M3 receptors) is given as “no selectivity”.
In the case of C[N+]1(C)CC[C@@H](OC(=O)[C@](O)(c2ccccc2)C2CCCC2)C1.[Br-] [R,R-glycopyrrolate], the “influence of the single substance on LPS-induced TNFα release” value ([1]; human monocytes, LPS 1 μg/ml, 24 h, concentrations up to 10 μM) is reported as “did not influence”.
